Columns and labels:
ICR male mice = assay: Thioglycollate-induced inflammation model; format: in vivo; conditions: peritoneal cavity, 96 h after thioglycollate; 10 mg/kg subcutaneous at 0 h, 3 h and 16 h
Experimental: 3% Brewer's thioglycollate broth (Difco, Detroit, Mich.) was injected into the peritoneal cavity of ICR male mice, followed by subcutaneous administration of the same dose of test compound after 0 h, 3 h and 16 hours post-thioglycollate injection, respectively. After 96 h, the number of total elicited cells and MOMA2-positive cells in the peritoneal cavity was analyzed using a flowcytometer (EPICS XL, Beckman Coulter).

male Wistar rats = assay: Anti-Thy-1 antibody induced nephritis model; format: in vivo; conditions: 1 mg/kg subcutaneous, 2 h before, immediately after, 5 h after anti-Thy-1 antibody, then twice a day for 2 days
Experimental: The efficacy of the compounds of the present invention was also evaluated in an animal model of nephritis. This model simulates very closely the conditions found in human mesangial proliferative glomerulonephritis.
Anti-Thy-1 nephritis was induced by intravenous injection of anti-Thy-1-antibody to male Wistar rats. The test compound was subcutaneously administered 2 h before, immediately after, and 5 h after the anti-Thy-1 antibody treatment, and then twice a day for the following 2 days. Anti-MCP-1 antibody was intraperitoneally injected once a day for 3 days. Seven days after the anti-Thy-1 antibody treatment, the rats were sacrificed. The kidneys were perfused with 10% formaldehyde in PBS, surgically removed, and immersed in 10% formaldehyde. The kidneys were then embedded in paraffin for glomerular histopathology or in OCT compound Miles Inc., Elkhart, Ind.) in liquid nitrogen after immersion in 30% sucrose overnight. Immunohistochemical staining was performed with a mouse anti-rat ED-1 monoclonal antibody. Briefly, […] renal sections were prepared and endogenous peroxidase blocked with 0.3% hydrogen peroxide. The sections were then blocked with Protein Block (DAKO, Japan) and stained with anti-ED-1 antibody for 45 min. […] The amount of urinary protein was determined with the DC protein assay kit (Bio-Rad, Hercules, Calif.). […]

SMILES | MOMA2-positive Cells (ICR male mice) | Total Cells (ICR male mice) | Urinary Protein (male Wistar rats) [mg/day]
O=C(NC(=O)c1ccc2c(c1)OCO2)Nc1cccc(C(F)(F)F)c1 [Compound 16, 2H-Benzo[3,4-d]1,3-dioxolen-5-yl-N-({[3-(trifluoromethyl)phenyl]amino}carbonyl)carboxamide] | 7.5 ± 1.6 × 10^6 | 8.8 ± 1.5 × 10^6 | –
O=C(NC(=O)c1ccc2ncoc2c1)Nc1ccc(Cl)c(Cl)c1 [Compound 80, Benzoxazol-6-yl-N-{[(3,4-dichlorophenyl)amino]carbonyl}carboxamide] | – | – | 162.1 ± 42.6
O=C(NC(=O)c1ccc2ncoc2c1)Nc1ccc(C(F)(F)F)cc1 [Compound 82, Benzoxazol-6-yl-N-({[4-(trifluoromethyl)phenyl]amino}carbonyl)carboxamide] | 3.2 ± 0.4 × 10^6 | 4.2 ± 0.4 × 10^6 | –
